System: MV-4-11 cells
Assay: Gene expression microarray analysis (Affymetrix PrimeView) and GSEA
Assay type: cell-based, human
Set-up: RFU PODN (11730768_x_at) / Fold change /veh PODN (11730768_x_at) / RFU LINC00158 (11744669_a_at) / Fold change /veh LINC00158 (11744669_a_at) / RFU DUSP10 (11751237_a_at) / Fold change /veh DUSP10 (11751237_a_at) / RFU ID3 (11757404_x_at) / Fold change /veh ID3 (11757404_x_at) / RFU PLEKHG5 (11737974_s_at) / Fold change /veh PLEKHG5 (11737974_s_at) / RFU LRRC4B (11730491_at) / Fold change /veh LRRC4B (11730491_at) / RFU GIMAP4 (11747438_a_at) / Fold change /veh GIMAP4 (11747438_a_at) / RFU KRT8 (11758183_x_at) / Fold change /veh KRT8 (11758183_x_at) / RFU CNN1 (11734310_a_at) / Fold change /veh CNN1 (11734310_a_at) / RFU VPS37D (11726825_at) / Fold change /veh VPS37D (11726825_at) / RFU C10orf10 (11716522_x_at) / Fold change /veh C10orf10 (11716522_x_at) / RFU KIR2DL2 /// KIR2DL4 /// KIR2DL5A /// KIR2DL5B /// KIR2DS1 /// KIR2DS2 /// KIR2DS3 /// KIR2DS4 /// KIR3DL3 /// KIR3DL3 /// KIR3DS1 (11738374_at) / Fold change /veh KIR2DL2 /// KIR2DL4 /// KIR2DL5A /// KIR2DL5B /// KIR2DS1 /// KIR2DS2 /// KIR2DS3 /// KIR2DS4 /// KIR3DL3 /// KIR3DL3 /// KIR3DS1 (11738374_at) / RFU C1QL1 (11718748_at) / Fold change /veh C1QL1 (11718748_at) / RFU TMPRSS4 (11747572_a_at) / Fold change /veh TMPRSS4 (11747572_a_at) / RFU HAMP (11756126_x_at) / Fold change /veh HAMP (11756126_x_at) / RFU RNFT2 (11725882_a_at) / Fold change /veh RNFT2 (11725882_a_at) / RFU NR4A2 (11747474_a_at) / Fold change /veh NR4A2 (11747474_a_at) / RFU ABCC12 (11746883_a_at) / Fold change /veh ABCC12 (11746883_a_at) / RFU TMEM136 (11760407_x_at) / Fold change /veh TMEM136 (11760407_x_at) / RFU CLDN22 /// WWC2 (11732394_at) / Fold change /veh CLDN22 /// WWC2 (11732394_at) / RFU HLA-DPB1 (11760878_x_at) / Fold change /veh HLA-DPB1 (11760878_x_at) / RFU SPINT1 (11716480_a_at) / Fold change /veh SPINT1 (11716480_a_at) / RFU GAP43 (11754022_s_at) / Fold change /veh GAP43 (11754022_s_at) / RFU A4GNT (11735810_at) / Fold change /veh A4GNT (11735810_at) / RFU PRB3 (11715151_x_at) / Fold change /veh PRB3 (11715151_x_at) / RFU TUBB4B (11761932_at) / Fold change /veh TUBB4B (11761932_at) / RFU CAPN14 (11732068_a_at) / Fold change /veh CAPN14 (11732068_a_at) / RFU TMCC2 (11721928_a_at) / Fold change /veh TMCC2 (11721928_a_at) / RFU IRGQ (11745062_a_at) / Fold change /veh IRGQ (11745062_a_at) / RFU FAM174B (11720279_a_at) / Fold change /veh FAM174B (11720279_a_at) / RFU TMPRSS4 (11748680_a_at) / Fold change /veh TMPRSS4 (11748680_a_at) / RFU FAM212B (11763350_a_at) / Fold change /veh FAM212B (11763350_a_at) / RFU PLEKHG5 (11743358_a_at) / Fold change /veh PLEKHG5 (11743358_a_at) / RFU ZSCAN30 (11745921_a_at) / Fold change /veh ZSCAN30 (11745921_a_at) / RFU CMKLR1 (11741424_a_at) / Fold change /veh CMKLR1 (11741424_a_at) / RFU LOC101060620 /// MAPK8IP1 (11723275_at) / Fold change /veh LOC101060620 /// MAPK8IP1 (11723275_at) / RFU SPTSSB (11747773_x_at) / Fold change /veh SPTSSB (11747773_x_at) / RFU PRSS12 (11739890_at) / Fold change /veh PRSS12 (11739890_at) / RFU BIN1 (11741810_x_at) / Fold change /veh BIN1 (11741810_x_at) / RFU WNT11 (11732464_a_at) / Fold change /veh WNT11 (11732464_a_at) / RFU C10orf10 (11716521_a_at) / Fold change /veh C10orf10 (11716521_a_at) / RFU C5orf56 (11738089_at) / Fold change /veh C5orf56 (11738089_at) / RFU CYB561 (11721691_x_at) / Fold change /veh CYB561 (11721691_x_at) / RFU ANKRD19P (11752326_a_at) / Fold change /veh ANKRD19P (11752326_a_at) / RFU OR2T12 /// OR2T33 /// OR2T8 (11738714_s_at) / Fold change /veh OR2T12 /// OR2T33 /// OR2T8 (11738714_s_at) / RFU VCAN (11748164_a_at) / Fold change /veh VCAN (11748164_a_at) / RFU JSRP1 (11732532_at) / Fold change /veh JSRP1 (11732532_at) / RFU KRTAP10-11 (11738290_x_at) / Fold change /veh KRTAP10-11 (11738290_x_at) / RFU MYO3A (11730013_a_at) / Fold change /veh MYO3A (11730013_a_at) / RFU EBF3 (11725865_a_at) / Fold change /veh EBF3 (11725865_a_at) / RFU CAMK2N1 (11719241_x_at) / Fold change /veh CAMK2N1 (11719241_x_at) / RFU C5orf56 (11738088_a_at) / Fold change /veh C5orf56 (11738088_a_at) / RFU OLFML3 (11715873_a_at) / Fold change /veh OLFML3 (11715873_a_at) / RFU LOC100653217 /// NTM (11731650_a_at) / Fold change /veh LOC100653217 /// NTM (11731650_a_at) / RFU MAPK11 (11762145_a_at) / Fold change /veh MAPK11 (11762145_a_at) / RFU FIZ1 (11724087_x_at) / Fold change /veh FIZ1 (11724087_x_at) / RFU OASL (11726364_x_at) / Fold change /veh OASL (11726364_x_at) / RFU SOX15 (11748057_x_at) / Fold change /veh SOX15 (11748057_x_at) / RFU CD79A (11719716_a_at) / Fold change /veh CD79A (11719716_a_at) / RFU HIST1H1D (11736915_at) / Fold change /veh HIST1H1D (11736915_at) / RFU CASKIN2 (11723855_a_at) / Fold change /veh CASKIN2 (11723855_a_at) / RFU LOC730098 (11760151_x_at) / Fold change /veh LOC730098 (11760151_x_at) / RFU OR4N2 (11742367_at) / Fold change /veh OR4N2 (11742367_at) / RFU PRRT2 (11749266_a_at) / Fold change /veh PRRT2 (11749266_a_at) / RFU SNX32 (11753110_a_at) / Fold change /veh SNX32 (11753110_a_at) / RFU CDHR5 (11726645_a_at) / Fold change /veh CDHR5 (11726645_a_at) / RFU RCAN1 (11760418_a_at) / Fold change /veh RCAN1 (11760418_a_at) / RFU FAM167A (11723789_a_at) / Fold change /veh FAM167A (11723789_a_at) / RFU FAM26E (11764081_at) / Fold change /veh FAM26E (11764081_at) / RFU ISYNA1 (11749810_s_at) / Fold change /veh ISYNA1 (11749810_s_at) / RFU ACY1 (11761880_at) / Fold change /veh ACY1 (11761880_at) / RFU 11764098_at / Fold change /veh 11764098_at / RFU SAMD14 (11745864_x_at) / Fold change /veh SAMD14 (11745864_x_at) / RFU NPB (11741838_a_at) / Fold change /veh NPB (11741838_a_at) / RFU TMPRSS6 (11731388_a_at) / Fold change /veh TMPRSS6 (11731388_a_at) / RFU KRTAP10-2 (11738614_at) / Fold change /veh KRTAP10-2 (11738614_at) / RFU ARHGAP8 /// PRR5-ARHGAP8 (11727945_x_at) / Fold change /veh ARHGAP8 /// PRR5-ARHGAP8 (11727945_x_at) / RFU KRTAP5-7 /// NADSYN1 (11734609_at) / Fold change /veh KRTAP5-7 /// NADSYN1 (11734609_at) / RFU RASL12 (11751679_a_at) / Fold change /veh RASL12 (11751679_a_at) / RFU CDKN2B (11736163_a_at) / Fold change /veh CDKN2B (11736163_a_at) / RFU PRF1 (11729649_at) / Fold change /veh PRF1 (11729649_at) / RFU, ZNF638 /// ZNF638-IT1 / Fold change vs veh, ZNF638 /// ZNF638-IT1 / RFU, PANK3 / Fold change vs veh, PANK3 / RFU, SH3YL1 / Fold change vs veh, SH3YL1 / RFU, ZEB2 / Fold change vs veh, ZEB2 / RFU, NRIP1 / Fold change vs veh, NRIP1 / RFU, PTTG1IP / Fold change vs veh, PTTG1IP / RFU, CAPN2 / Fold change vs veh, CAPN2 / RFU, MED14 / Fold change vs veh, MED14 / RFU, SNORA58 / Fold change vs veh, SNORA58 / RFU, C1orf63 / Fold change vs veh, C1orf63 / RFU, LRRFIP1 / Fold change vs veh, LRRFIP1 / RFU, NDUFAF7 / Fold change vs veh, NDUFAF7 / RFU, SLC12A2 / Fold change vs veh, SLC12A2 / RFU, IBTK / Fold change vs veh, IBTK / RFU, ESF1 / Fold change vs veh, ESF1 / Fold change vs veh, TMEM50B / RFU, TAOK1 / Fold change vs veh, TAOK1 / RFU, ACBD3 / Fold change vs veh, ACBD3 / RFU, TMA16 / Fold change vs veh, TMA16 / RFU, RWDD3 / Fold change vs veh, RWDD3 / RFU, BCAT1 / Fold change vs veh, BCAT1 / RFU, EDEM3 / Fold change vs veh, EDEM3 / RFU, TMEM33 / Fold change vs veh, TMEM33 / RFU, WDR75 / Fold change vs veh, WDR75 / RFU, AHCTF1 / Fold change vs veh, AHCTF1 / RFU, TFRC / Fold change vs veh, TFRC / RFU, ZDHHC17 / Fold change vs veh, ZDHHC17 / RFU, NOM1 / Fold change vs veh, NOM1 / RFU, ARL8B / Fold change vs veh, ARL8B / RFU, ZBTB11 / Fold change vs veh, ZBTB11 / RFU, TAMM41 / Fold change vs veh, TAMM41 / RFU, KIAA1704 /// LOC100996395 / Fold change vs veh, KIAA1704 /// LOC100996395 / RFU, ING1 / Fold change vs veh, ING1 / RFU, TRMT61B / Fold change vs veh, TRMT61B / RFU, FUBP3 / Fold change vs veh, FUBP3 / RFU, TP53 / Fold change vs veh, TP53 / RFU, TNKS2 / Fold change vs veh, TNKS2 / RFU, ZFP14 / Fold change vs veh, ZFP14 / RFU, ACTR2 / Fold change vs veh, ACTR2 / RFU, PPP3R1 / Fold change vs veh, PPP3R1 / RFU, PIK3R1 / Fold change vs veh, PIK3R1 / RFU, HNRNPA1 / Fold change vs veh, HNRNPA1 / RFU, RNF170 / Fold change vs veh, RNF170 / RFU, ZNF28 / Fold change vs veh, ZNF28 / RFU, RNGTT / Fold change vs veh, RNGTT / RFU, OGT / Fold change vs veh, OGT / RFU, BRD1 / Fold change vs veh, BRD1 / RFU, MARS / Fold change vs veh, MARS / RFU, ZNF655 / Fold change vs veh, ZNF655 / RFU, FAHD1 / Fold change vs veh, FAHD1 / RFU, BDP1 / Fold change vs veh, BDP1 / RFU, LRRCC1 / Fold change vs veh, LRRCC1 / RFU, ARID1A / Fold change vs veh, ARID1A / RFU, ZNF146 / Fold change vs veh, ZNF146 / RFU, ZNF330 / Fold change vs veh, ZNF330 / RFU, GPN3 / Fold change vs veh, GPN3 / RFU, C9orf123 / Fold change vs veh, C9orf123 / RFU, N4BP2L2 / Fold change vs veh, N4BP2L2 / RFU, ARFIP1 / Fold change vs veh, ARFIP1 / RFU, FAM179B / Fold change vs veh, FAM179B / RFU, BCL10 / Fold change vs veh, BCL10 / RFU, UHRF1BP1L / Fold change vs veh, UHRF1BP1L / RFU, BET1 / Fold change vs veh, BET1 / RFU, CNOT2 / Fold change vs veh, CNOT2 / RFU, ZNF268 / Fold change vs veh, ZNF268 / Fold change vs veh, ZNF507 / RFU, DGCR2 / Fold change vs veh, DGCR2 / RFU, WDSUB1 / Fold change vs veh, WDSUB1 / Fold change vs veh, HSP90B1 /// MIR3652 / RFU, ADSS / Fold change vs veh, ADSS / RFU, GK / Fold change vs veh, GK / RFU, ZNF148 / Fold change vs veh, ZNF148 / RFU, TAF9 / Fold change vs veh, TAF9 / RFU, SLC1A5 / Fold change vs veh, SLC1A5 / RFU, SLMO2 / Fold change vs veh, SLMO2 / RFU, ABCC4 / Fold change vs veh, ABCC4 / RFU, LOC101060439 /// RAP1B / Fold change vs veh, LOC101060439 /// RAP1B / RFU, RFX7 / Fold change vs veh, RFX7 / RFU, GTPBP10 / Fold change vs veh, GTPBP10 / RFU, CNEP1R1 / Fold change vs veh, CNEP1R1 / RFU, BIVM-ERCC5 /// ERCC5 / Fold change vs veh, BIVM-ERCC5 /// ERCC5 / RFU, ILF3 / Fold change vs veh, ILF3 / RFU 11762660_at / Fold change /veh 11762660_at / RFU VCAN (11757783_s_at) / Fold change /veh VCAN (11757783_s_at) / RFU DDX43 (11728927_at) / Fold change /veh DDX43 (11728927_at) / RFU KRT8 (11758188_x_at) / Fold change /veh KRT8 (11758188_x_at) / RFU NKD1 (11759106_at) / Fold change /veh NKD1 (11759106_at) / RFU SRD5A1 (11742802_a_at) / Fold change /veh SRD5A1 (11742802_a_at) / RFU TPSAB1 /// TPSB2 (11721975_s_at) / Fold change /veh TPSAB1 /// TPSB2 (11721975_s_at) / RFU GSTM3 (11746129_a_at) / Fold change /veh GSTM3 (11746129_a_at) / RFU IL23R (11737362_x_at) / Fold change /veh IL23R (11737362_x_at) / RFU TMEM51 (11727254_a_at) / Fold change /veh TMEM51 (11727254_a_at) / RFU PIWIL2 (11732686_x_at) / Fold change /veh PIWIL2 (11732686_x_at) / RFU ORM1 (11744905_x_at) / Fold change /veh ORM1 (11744905_x_at) / RFU CCDC152 (11743942_at) / Fold change /veh CCDC152 (11743942_at) / RFU ECM1 (11717891_a_at) / Fold change /veh ECM1 (11717891_a_at) / RFU IL23R (11748794_a_at) / Fold change /veh IL23R (11748794_a_at) / RFU TNFAIP8L3 (11732012_x_at) / Fold change /veh TNFAIP8L3 (11732012_x_at) / RFU MBOAT4 (11741988_at) / Fold change /veh MBOAT4 (11741988_at) / RFU 11764193_at / Fold change /veh 11764193_at / RFU TMEM53 (11763286_at) / Fold change /veh TMEM53 (11763286_at) / RFU MAGEB2 (11727129_at) / Fold change /veh MAGEB2 (11727129_at) / RFU TMEM200A (11744735_a_at) / Fold change /veh TMEM200A (11744735_a_at) / RFU CCDC152 (11751479_a_at) / Fold change /veh CCDC152 (11751479_a_at) / RFU FAM211A (11726209_a_at) / Fold change /veh FAM211A (11726209_a_at) / RFU RGS16 (11746705_a_at) / Fold change /veh RGS16 (11746705_a_at) / RFU VCAN (11755009_s_at) / Fold change /veh VCAN (11755009_s_at) / RFU RHOB (11743442_s_at) / Fold change /veh RHOB (11743442_s_at) / RFU RGS16 (11720943_a_at) / Fold change /veh RGS16 (11720943_a_at) / RFU RGS16 (11720944_at) / Fold change /veh RGS16 (11720944_at) / RFU, VPS4B / Fold change vs veh, VPS4B / RFU, CREB1 / Fold change vs veh, CREB1 / RFU, DNAJC13 / Fold change vs veh, DNAJC13 / RFU, GNAQ / Fold change vs veh, GNAQ / RFU, CDK5R1 / Fold change vs veh, CDK5R1 / RFU, ZRANB3 / Fold change vs veh, ZRANB3 / RFU, CUL4A / Fold change vs veh, CUL4A / RFU, CCNY / Fold change vs veh, CCNY / RFU, UFL1 / Fold change vs veh, UFL1 / RFU, COG3 / Fold change vs veh, COG3 / RFU, DIAPH2 / Fold change vs veh, DIAPH2 / RFU, SKA2 / Fold change vs veh, SKA2 / RFU, AFF3 / Fold change vs veh, AFF3 / RFU, LMF1 / Fold change vs veh, LMF1 / RFU, IPO11 / Fold change vs veh, IPO11 / RFU, DFFB / Fold change vs veh, DFFB / RFU, FOXP1 / Fold change vs veh, FOXP1 / RFU, CARD8 / Fold change vs veh, CARD8 / RFU, STRN3 / Fold change vs veh, STRN3 / RFU, ADK / Fold change vs veh, ADK / RFU, RASSF2 / Fold change vs veh, RASSF2 / RFU, WIPF1 / Fold change vs veh, WIPF1 / RFU, LARP1B / Fold change vs veh, LARP1B / RFU, RASA1 / Fold change vs veh, RASA1 / RFU, RB1 / Fold change vs veh, RB1 / RFU, PPFIA1 / Fold change vs veh, PPFIA1 / RFU, MAT2A / Fold change vs veh, MAT2A / RFU, CCT5 / Fold change vs veh, CCT5 / RFU, WDR92 / Fold change vs veh, WDR92 / RFU, CUX1 / Fold change vs veh, CUX1 / RFU, TTC7A / Fold change vs veh, TTC7A / RFU, TMEM135 / Fold change vs veh, TMEM135 / RFU, DEPTOR / Fold change vs veh, DEPTOR / RFU, CPM / Fold change vs veh, CPM / RFU, DNAJB6 / Fold change vs veh, DNAJB6 / RFU, CACNA2D3 / Fold change vs veh, CACNA2D3 / RFU, DTX4 / Fold change vs veh, DTX4 / RFU, TFCP2 / Fold change vs veh, TFCP2 / RFU, GMCL1 /// GMCL1P1 / Fold change vs veh, GMCL1 /// GMCL1P1 / RFU, AEBP2 / Fold change vs veh, AEBP2 / RFU, SNHG1 /// SNORD22 /// SNORD25 /// SNORD26 /// SNORD27 /// SNORD28 /// SNORD29 /// SNORD31 / Fold change vs veh, SNHG1 /// SNORD22 /// SNORD25 /// SNORD26 /// SNORD27 /// SNORD28 /// SNORD29 /// SNORD31 / Fold change (Aza/veh), C12orf56 (ProbeSet 11735607_a_at) / Fold change (ACY-1035/veh), C12orf56 (ProbeSet 11735607_a_at) / Fold change (Aza/veh), FGFR1OP (ProbeSet 11751329_s_at) / Fold change (ACY-1035/veh), FGFR1OP (ProbeSet 11751329_s_at) / Fold change (Aza/veh), VPS36 (ProbeSet 11739960_a_at) / Fold change (ACY-1035/veh), VPS36 (ProbeSet 11739960_a_at) / RFU SYPL1 (11715823_x_at) / Fold change /veh SYPL1 (11715823_x_at) / RFU IGFBP7 (11715501_s_at) / Fold change /veh IGFBP7 (11715501_s_at) / RFU REEP3 (11722064_at) / Fold change /veh REEP3 (11722064_at) / RFU IGLL1 (11728026_x_at) / Fold change /veh IGLL1 (11728026_x_at): dose or concentration left out as unconfirmed
Settings: MV-4-11 cells, 48 hours

Nc1ncn([C@@H]2O[C@H](CO)[C@@H](O)[C@H]2O)c(=O)n1 [azacitidine]
Fold change /veh 11762660_at: 1.27
